Source: PubChem BioAssay (NCI)
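Compound exposure: 48 hours, 5 concentrations, 96-well plates. GI50 = concentration required for 50% inhibition of growth. The concentration for full growth arrest is given as TGI.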

Assays:
Test in all cases: NCI-60 cell line screen, 48 h
[1] = system: COLO 205 colon
[2] = system: OVCAR-3 ovarian
[3] = system: SR leukemia
[4] = system: SK-MEL-2 melanoma
[5] = system: CAKI-1 renal
[6] = system: NCI-H226 lung
[7] = system: K-562 leukemia
[8] = system: MDA-MB-435
[9] = system: SK-OV-3 ovarian
[10] = system: SNB-75 CNS
[11] = system: HS 578T breast
[12] = system: MOLT-4 leukemia
[13] = system: SNB-19 CNS
[14] = system: HCC-2998 colon
[15] = system: IGROV1 ovarian
[16] = system: NCI-H460 lung
[17] = system: PC-3 prostate
[18] = system: HOP-92 NSCLC
[19] = system: CCRF-CEM leukemia
[20] = system: U251 CNS
[21] = system: UACC-62 melanoma
[22] = system: HCT-15 colon
[23] = system: RPMI-8226 leukemia
[24] = system: LOX IMVI melanoma
[25] = system: MDA-MB-231 breast
[26] = system: ACHN renal
[27] = system: HOP-62 NSCLC
[28] = system: BT-549 breast
[29] = system: MCF7 breast
[30] = system: OVCAR-8 ovarian
[31] = system: 786-0 renal
[32] = system: A549 NSCLC
[33] = system: DU-145 prostate
[34] = system: NCI-H522 lung
[35] = system: SW-620 colon
[36] = system: SF-295 CNS
[37] = system: TK-10 renal
[38] = system: SF-268 CNS
[39] = system: NCI-H23 lung
[40] = system: M14 melanoma
[41] = system: OVCAR-4 ovarian
[42] = system: NCI/ADR-RES ovarian
[43] = system: UO-31 renal
[44] = system: HT29 colon
[45] = system: SN12C renal
[46] = system: HL-60(TB) leukemia
[47] = system: HCT-116 colon
[48] = system: EKVX NSCLC
[49] = system: SK-MEL-5 melanoma
[50] = system: KM12 colon
[51] = system: SF-539 CNS
[52] = system: T-47D breast
[53] = system: SK-MEL-28 melanoma
[54] = system: MALME-3M melanoma
[55] = system: OVCAR-5 ovarian

## N[C@@H](Cc1c[nH]c2ccccc12)C(=O)NC1CCN(Cc2c[nH]c3ccc(Cl)cc23)CC1
[1]
  GI50: 2.11 µM
  TGI: 4.65 µM
[2]
  GI50: 10.5 µM
  TGI: 22.5 µM
[3]
  GI50: 2.33 µM
  TGI: 6.46 µM
[4]
  GI50: 16.6 µM
  TGI: 31.8 µM
[5]
  GI50: 17.8 µM
  TGI: 47.4 µM
[6]
  GI50: 15.4 µM
  TGI: 34.1 µM
[7]
  GI50: 2.72 µM
  TGI: 12.5 µM
[8]
  GI50: 5.99 µM
  TGI: 18.7 µM
[9]
  GI50: 14.6 µM
  TGI: 28.1 µM
[10]
  GI50: 11.6 µM
  TGI: 29.1 µM
[11]
  GI50: 7.63 µM
  TGI: 24.5 µM
[12]
  GI50: 2.79 µM
  TGI: 9.6 µM
[13]
  GI50: 10.4 µM
  TGI: 23.9 µM
[14]
  GI50: 3.3 µM
  TGI: 13.4 µM
[15]
  GI50: 8.78 µM
  TGI: 23.4 µM
[16]
  GI50: 4.71 µM
  TGI: 16 µM
[17]
  GI50: 6.01 µM
  TGI: 19.9 µM
[18]
  GI50: 3.86 µM
  TGI: 17.2 µM
[19]
  GI50: 2.15 µM
  TGI: 4.95 µM
[20]
  GI50: 10.6 µM
  TGI: 22.7 µM
[21]
  GI50: 5.56 µM
  TGI: 18.3 µM
[22]
  GI50: 16.2 µM
  TGI: 31 µM
[23]
  GI50: 6.23 µM
  TGI: 23.3 µM
[24]
  GI50: 2.77 µM
  TGI: 8.95 µM
[25]
  GI50: 2.32 µM
  TGI: 6 µM
[26]
  GI50: 13.4 µM
  TGI: 27.7 µM
[27]
  GI50: 11 µM
  TGI: 24.8 µM
[28]
  GI50: 16 µM
  TGI: 34.4 µM
[29]
  GI50: 5.63 µM
  TGI: 20.9 µM
[30]
  GI50: 15.1 µM
  TGI: 29.6 µM
[31]
  GI50: 11.4 µM
  TGI: 24.9 µM
[32]
  GI50: 13.9 µM
  TGI: 27.5 µM
[33]
  GI50: 8.76 µM
  TGI: 21.2 µM
[34]
  GI50: 10 µM
  TGI: 22.7 µM
[35]
  GI50: 4.79 µM
  TGI: 16.8 µM
[36]
  GI50: 6.34 µM
  TGI: 20.1 µM
[37]
  GI50: 13.4 µM
  TGI: 27.2 µM
[38]
  GI50: 7.74 µM
  TGI: 22 µM
[39]
  GI50: 15.3 µM
  TGI: 30.7 µM
[40]
  GI50: 6.4 µM
  TGI: 19.5 µM
[41]
  GI50: 8.14 µM
  TGI: 22 µM
[42]
  GI50: 65.3 µM
  TGI: > 100 µM
[43]
  GI50: 13 µM
  TGI: 26.4 µM
[44]
  GI50: 10.8 µM
  TGI: 23.5 µM
[45]
  GI50: 15.3 µM
  TGI: 30.4 µM
[46]
  GI50: 7.04 µM
  TGI: 24.4 µM
[47]
  GI50: 3.87 µM
  TGI: 12.6 µM
[48]
  GI50: 10.9 µM
  TGI: 25.1 µM
[49]
  GI50: 13.1 µM
  TGI: 25.9 µM
[50]
  GI50: 4.6 µM
  TGI: 16.9 µM
[51]
  GI50: 5.62 µM
  TGI: 20.2 µM
[52]
  GI50: 4.65 µM
  TGI: 20 µM
[53]
  GI50: 1.99 µM
  TGI: 4.48 µM
[54]
  GI50: 1.86 µM
  TGI: 3.98 µM
[55]
  GI50: 5.14 µM
  TGI: 20.8 µM
